Results published in patent US10441681B2, “Materials and methods for nerve grafting” (University of Florida Research Foundation, Inc., priority 2001, dated 2019).

How the values were obtained:
rat sciatic nerve = test: Axonal regeneration after bilateral sciatic nerve crush injury (axonotmesis); format: in vivo; conditions: two days after injury, 1 U in 2 μl injected, n=6
Experimental: (§1) All surgical procedures were performed according to Institutional Animal Care and Use Committee (IACUC) approved protocols. Young adult SPRAGUE DAWLEY rats (HARLAN Indianapolis, Ind.) were deeply anesthetized with xylazine (15 mg/kg, i.m.) followed by ketamine-HCl (110 mg/kg, i.p.). Six animals received bilateral nerve crush injuries. Sciatic nerves were exposed and then crushed with firm pressure for thirty seconds with a DUMONT #5 forceps at a site 4 mm distal to the tendon of the internal obdurator. The crush site was marked with an epineurial suture. In a separate set of experiments, eight rats received bilateral sciatic nerve transection injuries using serrated scissors. The proximal and distal stumps were […] by epineurial neurorrhaphy using 9-0 ETHILON sutures. Fibrin glue (fibrinogen and thrombin) was then applied to stabilize the union. In both injury models, the right sciatic nerves were injected 2-mm distal to the injury with chondroitinase ABC (1 U in 2 μl) (high-purity, protease-free; SIGMA CHEMICAL CO., St. Louis, Miss.). Left sciatic nerves (with the same injury as the right side) were injected with vehicle alone (0.1% bovine serum albumin in PBS). […]
The hypothesis that chondroitinase treatment improves axonal growth through the site of nerve crush injury was tested. […] Regenerating axons were labeled by GAP-43 immunofluorescence and scored by digital image analysis. […]

CSPG = test: CSPG-neoepitope immunolabeling of injured sciatic nerve after in vivo chondroitinase injection; parameters: species or system rat; conditions: single injection 1 U in 2 μl, 2 mm distal to injury; 4 days (transection) or 2 days (crush)
Experimental: as §1, with “PBS). Muscle incisions were sutured and the skin closed with metal clips.” for “PBS).”
Axonal regeneration was assessed by GAP-43 immunofluorescence and digital image analysis. […]

chick DRG neurons = test: Cryoculture assay using human nerve segments; format: cell-based; conditions: 24 h
Experimental: Cryoculture is a neurite outgrowth assay in which neurons are cultured directly on fresh/frozen nerve sections and was performed as described previously (Ferguson T A et al. [2000] Mol Cell Neurosci, 16:157-167). Briefly, chondroitinase- and vehicle-treated nerve segments were sectioned at 20 μm, mounted on sterile, aminopropyltriethoxysilane (APTS)-coated coverslips and stored at −20° C. until used. Where indicated, sections were treated with chondroitinase ABC (0.1 unit/ml) or vehicle (50 mM Tris-HCl, pH 8.0), containing 50 mM NaCl) for 2 h at 37° C. Purified dorsal root ganglionic (DRG) neurons from day 8 chick embryos were seeded directly on the nerve sections in a defined N2 medium (Bottenstein J E et al. [1980] Exp Cell Res 125:183-190) containing 10 ng/ml nerve growth factor. Cryoculture assays were terminated after 24 h of incubation by fixation with 100% methanol. Neuritic growth by DRG neurons was accessed by GAP-43 immunofluorescent labeling. Epifluorescent photomicrographs were acquired as described for tissue sections. Neurite lengths were measured directly using IMAGE-PRO PLUS software (MEDIA CYBERNETICS, Silver Springs, Md.). At least 250 neurons with neurites greater than one cell body (˜15 μm) were scored for each condition in each experiment.
Many of the experiments described in the examples above performed using rat nerves also have been replicated using human nerve. […]

chondroitinase ABC
axonal regeneration after nerve crush injury (GAP-43 immunoreactivity) (rat sciatic nerve): no significant difference | axonal regeneration after nerve crush injury (GAP-43 immunoreactivity) (rat sciatic nerve; listed as chondroitinase): not significantly effected | CSPG degradation in extracellular matrix around the injection site (CSPG): substantially, if not completely, degraded CSPG | growth-promoting properties of human nerves (chick DRG neurons): increased
